Laboratory results as given in US20070191627A1, “Stilbene derivatives and their use in medicaments” (priority 2003, published 2007).
Read-outs that look alike come from different tables or passages of the source.

Columns and labels:
LNCaP = experiment: Clonogenic test series (7 d) in LNCaP prostate cancer cells; format: cell-based; conditions: Homo sapiens, 168 h, LNCaP cells respond to 5-alpha-dihydrotestosterone
PC-3 = experiment: Clonogenic test series (7 d) in PC-3 prostate cancer cells; format: cell-based; conditions: Homo sapiens, PC-3, 168 h
DU-145 = experiment: Clonogenic test series (7 d) in DU-145 prostate cancer cells; format: cell-based; conditions: Homo sapiens, DU-145, 168 h
[1] = test system: HL-60 human promyelocyte leukemia cells; experiment: Growth inhibition assay in HL-60 cells (72 h, cell count); format: cell-based; conditions: for IC50: Homo sapiens
Protocol: The human promyelocyte leukemia cell line HL-60 was purchased from the ATCC (American Type Culture Collection, Rockville, Md., USA). The cells were cultured in RPMI 1640 medium with 10% heat-inactivated fetal calf serum (FCS) (GIBCO, Grand Island Biological Co., Grand Island, N.Y., USA) and with 1% penicillin/streptomycin in a humidified atmosphere with 5% CO2.
The cell numbers were determined by means of a microcell counter CC-108 (Sysmex, Kobe, Japan). For the tests, cells in the logarithmic growth phase were used.
Logarithmically-growing HL-60 cells were prepared in a density of 0.1×10^6 cells/ml in tissue culture flasks and incubated with various concentrations of the stilbene derivatives to be examined. After 72 hours, the cells were counted by means of the microcell counter. The viability of the cells was determined by means of trypan blue staining. Numbers of viable cells were calculated as results.
After 72 hours, the cells were counted by means of the microcell counter. The viability of the cells was determined by means of trypan blue staining. Numbers of viable cells were calculated as results.

COX 2 = target: T1, COX 2 (Homo sapiens, UniProt P35354); experiment: COX (human) inhibitor screening assay, COX 2; format: biochemical; conditions: for COX2/COX1 Ratio: ratio of COX 2 IC50 to COX 1 IC50
T1 construct: purchased IBL Products Company, Hamburg, Germany
T1 sequence (P35354 18-604): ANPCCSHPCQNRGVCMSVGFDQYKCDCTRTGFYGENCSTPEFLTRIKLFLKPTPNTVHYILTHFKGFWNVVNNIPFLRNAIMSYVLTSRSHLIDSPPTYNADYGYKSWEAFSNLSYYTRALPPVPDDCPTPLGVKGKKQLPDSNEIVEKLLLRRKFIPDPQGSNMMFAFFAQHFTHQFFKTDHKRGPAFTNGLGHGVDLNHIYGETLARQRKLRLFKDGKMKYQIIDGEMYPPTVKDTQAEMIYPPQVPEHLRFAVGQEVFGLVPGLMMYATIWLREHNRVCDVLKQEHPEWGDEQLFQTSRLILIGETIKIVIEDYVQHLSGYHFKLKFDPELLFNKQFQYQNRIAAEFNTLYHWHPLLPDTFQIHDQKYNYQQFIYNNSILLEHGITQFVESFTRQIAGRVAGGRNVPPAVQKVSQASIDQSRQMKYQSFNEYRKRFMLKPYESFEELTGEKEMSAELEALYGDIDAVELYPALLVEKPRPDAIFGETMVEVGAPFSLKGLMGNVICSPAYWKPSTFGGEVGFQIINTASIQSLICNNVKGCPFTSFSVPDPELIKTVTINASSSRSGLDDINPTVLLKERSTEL

COX 1 = target: T2, COX 1 (Homo sapiens, UniProt P23219); experiment: COX (human) inhibitor screening assay, COX 1; format: biochemical
T2 construct: purchased IBL Products Company, Hamburg, Germany
T2 sequence (P23219 24-599): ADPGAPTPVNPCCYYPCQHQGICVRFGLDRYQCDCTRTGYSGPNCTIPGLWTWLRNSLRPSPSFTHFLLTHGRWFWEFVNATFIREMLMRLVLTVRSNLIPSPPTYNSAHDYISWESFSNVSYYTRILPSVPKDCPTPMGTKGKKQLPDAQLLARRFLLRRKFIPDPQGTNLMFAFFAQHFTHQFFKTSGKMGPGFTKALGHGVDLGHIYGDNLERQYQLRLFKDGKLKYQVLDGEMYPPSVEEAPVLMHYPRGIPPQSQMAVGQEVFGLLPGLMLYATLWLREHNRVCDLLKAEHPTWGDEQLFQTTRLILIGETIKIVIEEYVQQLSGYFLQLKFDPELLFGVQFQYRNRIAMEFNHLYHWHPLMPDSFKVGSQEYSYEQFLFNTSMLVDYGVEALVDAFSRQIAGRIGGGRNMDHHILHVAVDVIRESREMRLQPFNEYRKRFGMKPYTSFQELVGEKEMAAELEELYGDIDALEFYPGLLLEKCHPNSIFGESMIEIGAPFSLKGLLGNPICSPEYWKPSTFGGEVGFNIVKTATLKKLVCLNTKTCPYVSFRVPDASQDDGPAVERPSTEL

[2] = test system: HT-29 human colon tumor cells; experiment: Analysis of intracellular dATP pools in HT-29 cells; format: cell-based; conditions: 4 μM, HT-29, average
Protocol: (§1) The analysis of the intracellular dNTP concentrations was carried out according to the method of Garrett and Santi (Garrett, C.; Santi, D. V. A Rapid and Sensitive High-Pressure Liquid Chromatography Assay for Deoxyribonucleoside Triphosphates in Cell Extracts. Anal Biochem. 1979 Nov. 1; 99(2): 268-73.)
(§2) The action of hexahydroxystilbene (“M8”) on the intracellular dNTP concentrations in HL-60 cells was examined. The study was performed as described above. The cells were incubated with 6.25, 12.5 and 25 μM of hexahydroxystilbene, and then the dNTP pools were determined. […] The dATP concentrations dropped during treatment with 12.5 and 25 μM of hexahydroxystilbene to 27 and 41% of the starting values. The depletion of the dATP pools was especially impressive in the case of HT-29 human colon tumor cells; the dATP values dropped there as early as after treatment with 4 μM of the substance in an average of 1.5% of the starting values. […] The action of the substance can also be clarified by this impressive imbalance of the dNTP pools that are precursors of the DNA synthesis. The results of the experiment with HL-60 cells are plotted in FIG. 3.

HL-60 cells [3] = experiment: Apoptosis induction, Hoechst 33258/propidium iodide double staining in HL-60 cells; format: cell-based, human; conditions: 24 hours
Protocol: Then, the cells were treated for one hour with Hoechst 33258 (HO, Sigma, St. Louis, Mo., USA) and propidium iodide (PI, Sigma, St. Louis, Mo., USA) (5 μg/ml and 2 μg/ml). Then, the cells were photographed by means of a fluorescence microscope, and the cells were divided morphologically into early apoptotic, late apoptotic and necrotic cells. […] The results are plotted in FIG. 4.

HL-60 cells [4] = experiment: Cell cycle distribution by FACS in HL-60 cells; format: cell-based, human; conditions: 24 hours
Protocol: HL-60 cells were incubated in the presence of hexahydroxystilbene. After 24 hours, the cells were washed, centrifuged and fixed in alcohol. Then, […] and examined by means of FACS analysis. Then, the cell cycle phase distribution was calculated.

HL-60 cells [5] = experiment: Analysis of intracellular dNTP pools by HPLC in HL-60 cells; format: cell-based, human
Protocol: as §1, §2

[6] = HL-60, Table 3, 72 h, read-out: Growth inhibition (72 h) HL-60
[7] = HL-60, 1st determination series, 72 hours, read-out: IC50 (μM), inhibition of growth of HL-60 human promyelocyte leukemia cells
[8] = HL-60, read-out: IC50 (50% inhibition of cell growth), HL-60, 2nd determination series, 72 hours of incubation

| SMILES | IC50 (LNCaP) [µM] | IC50 (PC-3) [µM] | IC50 (DU-145) [µM] | IC50 [1, 6] [µM] | IC50 (COX 2) [µM] | COX2/COX1 Ratio (COX 2) | IC50 (COX 1) [µM] | IC50 [1, 7] [µM] | also measured |
| --- | --- | --- | --- | --- | --- | --- | --- | --- | --- |
| COc1cccc(C=Cc2cc(OC)cc(OC)c2)c1 [M5, 3,3′,5-Trimethoxystilbene] | 6.25 | 3 | 6 | 5 | – | – | – | – | – |
| O=C1O[C@H]([C@@H](O)CO)C(O)=C1O [Vitamin C, reference compound] | – | – | – | – | – | – | – | – | Action on cell growth of HL-60, in words ([1]; 50 or 100 μM, alone): no action on the cell growth |
| COc1cc(C=Cc2ccc(OC)c(OC)c2)cc(OC)c1 [M5A, 3,3′,4′,5-Tetramethoxystilbene] | 6.25 | 35 | 30 | 25 | – | – | – | – | – |
| COc1cc(C=Cc2cc(OC)cc(OC)c2)cc(OC)c1 [M1, 3,3′,5,5′-Tetramethoxystilbene] | 21 | 35 | 25 | > 100 | – | – | – | – | – |
| COc1cc(C=Cc2cc(OC)c(OC)c(OC)c2)cc(OC)c1OC [M3, 3,3′,4,4′,5,5′-Hexamethoxystilbene] | 37 | 5.5 | 12.5 | > 100 | 0.5 | 0.05 | 10 | > 100 | – |
| COc1ccc(C=Cc2cc(OC)c(OC)c(OC)c2)cc1 [M4, 3,4,4′,5-Tetramethoxystilbene] | 0.4 | 3 | 0.4 | 20 | – | – | – | – | – |
| Oc1cc(C=Cc2cc(O)c(O)c(O)c2)cc(O)c1O [M8, 3,3′,4,4′,5,5′-Hexahydroxystilbene] | 3.4 | 2.5 | 25 | 4 | 0.001 | – | 0.5 | 4 | dATP values, % of the starting values [2]: 1.5%; Cells with induction of apoptosis (HL-60 cells [3]; 6.25 μM): 68.5%; Apoptosis induction compared with resveratrol, in words (HL-60 cells [3]): induced apoptosis in these cells in the case of significantly lower concentrations than resveratrol; Cell cycle distribution, G2-M phase, in words (HL-60 cells [4]): a depletion of cells resulted in the G2-M phase; Cell cycle distribution, S phase, in words (HL-60 cells [4]): stopped the cells in S phase; IC50 [1, 8]: 6.25 µM; IC50 ([1]; HL-60, adding 50 or 100 μM of vitamin C, read-out: IC50 of growth inhibition, HL-60, with added vitamin C): 2 µM; dCTP pools, % of the control values (HL-60 cells [5]; 6.25 μM): 110%; dTTP pools, % of the starting values (HL-60 cells [5]; 6.25 μM): 84%; dATP concentrations, % of the starting values (HL-60 cells [5]; 12.5 μM): 27%; dCTP pools, % of the control values (HL-60 cells [5]; 12.5 μM): 137%; dTTP pools, % of the starting values (HL-60 cells [5]; 12.5 μM): 72%; dATP concentrations, % of the starting values (HL-60 cells [5]; 25 μM): 41%; dCTP pools, % of the control values (HL-60 cells [5]; 25 μM): 199%; dTTP pools, % of the starting values (HL-60 cells [5]; 25 μM): 27% |

More lines, main results first:

| IC50 (LNCaP) [µM] | IC50 (PC-3) [µM] | IC50 (DU-145) [µM] | IC50 [1, 6] [µM] | IC50 (COX 2) [µM] | COX2/COX1 Ratio (COX 2) | IC50 (COX 1) [µM] | IC50 [1, 7] [µM] | SMILES | also measured |
| --- | --- | --- | --- | --- | --- | --- | --- | --- | --- |
| 7.5 | 5 | 23 | 10 | 0.005 | 0.5 | 0.01 | 10 | Oc1cc(O)cc(C=Cc2cc(O)c(O)c(O)c2)c1 [M7, 3,3′,4,5,5′-Pentahydroxystilbene] | – |
| 84 | 16 | 17 | 12.5 | < 0.001 | <0.1 | 0.01 | 12.5 | Oc1cc(O)cc(C=Cc2cc(O)cc(O)c2)c1 [M6, 3,3′,5,5′-Tetrahydroxystilbene] | – |
| > 100 | 21 | 68 | 25 | 0.6 | 0.06 | 10 | 25 | COc1cc(C=Cc2cc(OC)c(OC)c(OC)c2)cc(OC)c1 [M2, 3,3′,4,5,5′-Pentamethoxystilbene] | – |
| 9.5 | 8 | 30 | 9 | 0.01 | 0.002 | 5 | 9 | Oc1ccc(C=Cc2cc(O)c(O)c(O)c2)cc1 [M9, 3,4,4′,5-Tetrahydroxystilbene] | – |
| 5 | 16 | 10 | 12 | – | – | – | 12 | Oc1ccc(C=Cc2cc(O)cc(O)c2)cc1 [Resveratrol, 3,4′,5-Trihydroxystilbene, reference compound] | IC50 [1, 8]: 12 µM |
| 33 | 18 | 58 | 9 | 0.005 | – | 5 | 9 | Oc1cc(O)cc(C=Cc2ccc(O)c(O)c2)c1 [M10, 3,3′,4′,5-Tetrahydroxystilbene] | – |
